Reference: patent US9624167B2, “N-(4-hydroxy-4-methyl-cyclohexyl)-4-phenyl-benzenesulfonamides and N-(4-hydroxy-4-methyl-cyclohexyl)-4-(2-pyridyl)benzenesulfonamides and their therapeutic use” (PIMCO 2664 LIMITED, priority 2013, dated 2017)
Where two headings read alike, the source gives them in different places.

Legend:
[1] = tested on: GADD45a-GFP reporter in TK6 human lymphoblastoid cell line; assay: GreenScreen HC genotoxicity (GADD45a-GFP reporter); type: cell-based
Excerpt: GreenScreen HC is a mammalian cell-based assay for measuring the genotoxicity and cytotoxicity of chemical compounds and mixtures.
The term genotoxic is used to describe substances that are capable of causing damage to genetic material (DNA) within a cell, which may ultimately have mutagenic, carcinogenic or teratogenic effects in humans.
The GreenScreen assay reports genotoxic stress as an increase in fluorescence from a genetically modified derivative of the p53-competent TK6 human lymphoblastoid cell line. In the modified cells, regulatory DNA sequences which promote the transcription of the GADD45a gene control the expression of Green Fluorescent Protein (GFP). GADD45a has a central role in genomic integrity, and genotoxic stress induces its transcription. Exposure to a genotoxic compound therefore increases the expression of GFP, which is observed as an increase in fluorescence and which is monitored by fluorescent detection using a plate reader or flow cytometer. In the GreenScreen HC assay fluorescence is normalised to the optical absorbance measurement to correct for variation in cell yield caused by loss of cell viability or cytotoxicity. The statistically defined threshold for a positive result in the GreenScreen HC assay is 1.5, i.e., 50% induction over and above the baseline for the vehicle-treated control.
A dilution series of each test compound is generated in parallel in a 96-well, black microplate with an optically clear base. A standard genotoxic compound (methyl methanesulfonate, MMS) is added as an intra-plate quality control check. The plates are analysed at 24 hour and 48 hour time points using a microplate reader, which provides measurements of light absorbance and fluorescence for cells and solutions in the microplates wells.
In addition to measurements of cell viability and genotoxicity described above, the GreenScreen assay incorporates an assessment of the effects of metabolic activation in the assay, the “GreenScreen HC S9 assay”. To accomplish this, the cells are incubated both in the presence of and absence of the post-mitochondrial supernatant liver extract (known as “S9”). S9 is routinely used in genetic toxicology to supplement the test cells with mammalian phase I metabolism. To assess metabolic activation, compounds are incubated with the TK6 strain in the presence of 1% v/v S9 fraction mix for 3 hours with a subsequent 45 hour recovery time. After the recovery period, the GFP fluorescence signal and cell viability (assessed by propidium iodide uptake) are measured using a flow cytometer. Cyclophosphamide, a commonly used control in genotoxicity studies utilising metabolic activation, is used as the positive control in the assay. In the GreenScreen HC S9 assay, genotoxicity is evaluated by induction in GFP expression quantified using the mean sample fluorescence and cytotoxicity using the propidium iodide uptake assay described above. The statistically defined threshold for a positive genotoxicity result is 1.3, i.e. 30% induction over and above the baseline for the vehicle-treated control and the result is reported as positive or negative. Cytotoxic compounds are those that show an observed decrease in relative population survival below a significance threshold set at 90% compared to vehicle-treated control, at one or more test concentrations.
Stably transfected reporter cell lines were derived from the p53-competent human lymphoblastoid TK6 cell line. The reporter cell line carries an episomally replicating plasmid bearing the upstream promoter region and other regulatory sequences of the human GADD45a gene linked to a human optimised Green Fluorescent Protein (GFP) gene. The control cell line carries an identical plasmid except for the removal of 4 base pairs at the start of the EGFP gene, such that GFP is not produced. […]

[2] = tested on: IL-6 release from LPS-stimulated Thp1 macrophages; assay: Thp1 Macrophage IL-6 Release Assay; type: cell-based; conditions: Homo sapiens
Excerpt: Anti-inflammatory effects were further characterised by assessing the production of interleukin-6 (IL-6) by human Thp-1 derived macrophages stimulated with a pro-inflammatory stimulus bacterial lipopolysaccharide (LPS). LPS acts with a cell-surface receptor, Toll-like receptor-4 to activate the NFκB and IRF signalling pathways to produce IL-6. The reduction of IL—in this stimulated assay is indicative of anti-inflammatory effects with utility in the treatment of conditions in which IL-6 production is aberrant.
In vitro potency of test compounds in human cells was determined by incubation with Thp1 macrophages and subsequent stimulation with an inflammatory stimulus (bacterial lipopolysaccharide (LPS)) followed by measurement of cellular interleukin-6 (IL-6) release.
Thp1 cells were plated at a concentration of 1×10^5 cells/well or 1.7×10^5 cells/well in 500 μL or 150 μL RPMI complete media containing 1% penicillin-streptomycin and 10% heat inactivated foetal bovine serum in 24-well plates or 96-well plates, respectively and allowed to adhere overnight. The following day, the cells were stimulated with phorbol myristic acid (PMA) at a final concentration of 100 nM (24-well plates) or 200 nM (96-well plates) to induce differentiation and maintained for up to 8 days with a medium change at 5 days if cells were cultured to 8 days. Test compounds were prepared as […] solutions in DMSO and then serially diluted in DMSO prior to dilution in culture medium.
The diluted compounds were added to the cultures 1 hour prior to stimulation with 100 ng/mL LPS. Following a 16 or 18 hour incubation at 37° C./5% CO2, the cell culture medium was collected and assayed for human IL-6 levels using the human IL-6 duo-set ELISA kit (R&D Systems). The average results for each test compound (n=3) were expressed as a percent (%) of the average control value. The average values across the concentrations tested were then plotted and the IC50 for the inhibition of IL-6 was calculated by fitting the data to a 4-parameter IC50 equation using software from Grafit version 6.0.12 (Erithacus Software Ltd., by Dr Robin Leatherbarrow) or GraphPad Prism version 5.04 for Windows (GraphPad Software, La Jolla, Calif., USA, www.qraphpad.com). Each experiment was repeated twice and the data are presented as the mean IC50 from both experiments.

[3] = GreenScreen HC, positive or negative
[4] = THP-1, 1 × 10^5 cells/well, 24-well plates, 8 days, 6 point curve, IL6 measured 16 hours after LPS, read-out: IC50 (1)
[5] = THP-1, 1.7 × 10^5 cells/well, 96-well plates, 3 days, 9 point curve, IL6 measured 18 hours after LPS, read-out: IC50 (2)

| Structure (SMILES) | Genotoxicity [1, 3] | Genotoxicity ([1]; lab scale batch, 1.3 mM to 0.3 pM) | Genotoxicity ([1]; mid scale batch, 164 μM to 0.003 μM) | IC50 [2, 4] | IC50 [2, 5] |
| --- | --- | --- | --- | --- | --- |
| Cc1cc(S(=O)(=O)NC2CCC(C)(O)CC2)ccc1-c1ccc(F)cc1F (single isomer, unassigned) [REF001, reference compound] | Positive | – | – | – | – |
| Cc1cc(S(=O)(=O)N[C@H]2CC[C@H](O)CC2)ccc1-c1ccc(F)cc1F [ABD735] | Negative | – | – | – | – |
| O=S(=O)(N[C@H]1CC[C@H](O)CC1)c1ccc(-c2ncc(Cl)cc2Cl)cc1 [ABD836, reference compound] | Positive | – | – | – | – |
| C[C@]1(O)CC[C@@H](NS(=O)(=O)c2ccc(-c3ccc(F)cc3F)cc2)CC1 [ABD899, reference compound] | – | Positive | Negative | – | – |
| C[C@]1(O)CC[C@H](NS(=O)(=O)c2ccc(-c3ccc(F)cc3F)cc2)CC1 [ABD900, reference compound] | Negative | – | – | – | – |
| C[C@]1(O)CC[C@H](NS(=O)(=O)c2ccc(-c3ccc(Cl)cc3C#N)cc2)CC1 [HMC-C-01-A, 4′-Chloro-2′-cyano-N-((1r,4r)-4-hydroxy-4-methylcyclohexyl)biphenyl-4-sulfonamide] | Negative | – | – | 0.04 µM | 0.18 µM |
| C[C@]1(O)CC[C@@H](NS(=O)(=O)c2ccc(-c3ccc(Cl)cc3C#N)cc2)CC1 [HMC-C-01-B, 4′-Chloro-2′-cyano-N-((1s,4s)-4-hydroxy-4-methylcyclohexyl)-[1,1′-biphenyl]-4-sulfonamide] | Negative | – | – | – | 0.06 µM |
| C[C@]1(O)CC[C@H](NS(=O)(=O)c2ccc(-c3ccc(F)cc3C(F)(F)F)cc2)CC1 [HMC-C-02-A, 4′-Fluoro-N-((1r,4r)-4-hydroxy-4-methylcyclohexyl)-2′-(trifluoromethyl)biphenyl-4-sulfonamide] | Negative | – | – | 0.001 µM | 0.97 µM |
| C[C@]1(O)CC[C@@H](NS(=O)(=O)c2ccc(-c3ccc(F)cc3C(F)(F)F)cc2)CC1 [HMC-C-02-B, 4′-Fluoro-N-((1s,4s)-4-hydroxy-4-methylcyclohexyl)-2′-(trifluoromethyl)-[1,1′-biphenyl]-4-sulfonamide] | – | – | – | – | 0.29 µM |
| C[C@]1(O)CC[C@H](NS(=O)(=O)c2ccc(-c3c(F)cc(F)cc3F)cc2)CC1 [HMC-C-03-A, 2′,4′,6′-Trifluoro-N-((1r,4r)-4-hydroxy-4-methylcyclohexyl)biphenyl-4-sulfonamide] | Negative | – | – | 0.004 µM | 0.05 µM |
| C[C@]1(O)CC[C@@H](NS(=O)(=O)c2ccc(-c3c(F)cc(F)cc3F)cc2)CC1 [HMC-C-03-B, 2′,4′,6′-Trifluoro-N-((1s,4s)-4-hydroxy-4-methylcyclohexyl)-[1,1′-biphenyl]-4-sulfonamide] | Positive | – | – | – | 0.02 µM |
| C[C@]1(O)CC[C@H](NS(=O)(=O)c2ccc(-c3ccc(F)cc3F)c(F)c2)CC1 [HMC-C-04-A, 2,2′,4′-Trifluoro-N-((1r,4r)-4-hydroxy-4-methylcyclohexyl)-[1,1′-biphenyl]-4-sulfonamide] | – | – | – | – | 0.13 µM |
| C[C@]1(O)CC[C@@H](NS(=O)(=O)c2ccc(-c3ccc(F)cc3F)c(F)c2)CC1 [HMC-C-04-B, 2,2′,4′-Trifluoro-N-((1s,4s)-4-hydroxy-4-methylcyclohexyl)-[1,1′-biphenyl]-4-sulfonamide] | – | – | – | – | 0.03 µM |
| C[C@]1(O)CC[C@H](NS(=O)(=O)c2ccc(-c3ncc(F)cc3F)c(F)c2)CC1 [HMC-N-01-A, 4-(3,5-Difluoropyridin-2-yl)-3-fluoro-N-((1r,4r)-4-hydroxy-4-methylcyclohexyl)benzenesulfonamide] | Negative | – | – | 0.13 µM | 0.28 µM |
| C[C@]1(O)CC[C@@H](NS(=O)(=O)c2ccc(-c3ncc(F)cc3F)c(F)c2)CC1 [HMC-N-01-B, 4-(3,5-Difluoropyridin-2-yl)-3-fluoro-N-((1s,4s)-4-hydroxy-4-methylcyclohexyl)benzenesulfonamide] | Negative | – | – | – | 0.03 µM |
| C[C@]1(O)CC[C@H](NS(=O)(=O)c2ccc(-c3ncc(F)cc3F)cc2)CC1 [HMC-N-02-A, 4-(3,5-Difluoropyridin-2-yl)-N-((1r,4r)-4-hydroxy-4-methylcyclohexyl)benzenesulfonamide] | Negative | – | – | 0.15 µM | 0.29 µM |
| C[C@]1(O)CC[C@@H](NS(=O)(=O)c2ccc(-c3ncc(F)cc3F)cc2)CC1 [HMC-N-02-B, 4-(3,5-Difluoropyridin-2-yl)-N-((1s,4s)-4-hydroxy-4-methylcyclohexyl)benzenesulfonamide] | Negative | – | – | – | 0.02 µM |
| C[C@]1(O)CC[C@H](NS(=O)(=O)c2ccc(-c3ncc(Cl)cc3Cl)cc2)CC1 [HMC-N-03-A, 4-(3,5-Dichloropyridin-2-yl)-N-((1r,4r)-4-hydroxy-4-methylcyclohexyl)benzenesulfonamide] | Negative | – | – | 0.05 µM | – |
| C[C@]1(O)CC[C@@H](NS(=O)(=O)c2ccc(-c3ncc(Cl)cc3Cl)cc2)CC1 [HMC-N-03-B, 4-(3,5-Dichloropyridin-2-yl)-N-((1s,4s)-4-hydroxy-4-methylcyclohexyl)benzenesulfonamide] | – | – | – | – | 0.02 µM |
| C[C@]1(O)CC[C@H](NS(=O)(=O)c2ccc(-c3ncc(Cl)cc3Cl)c(F)c2)CC1 [HMC-N-04-A, 4-(3,5-Dichloropyridin-2-yl)-3-fluoro-N-((1r,4r)-4-hydroxy-4-methylcyclohexyl)benzenesulfonamide] | Negative | – | – | – | – |
